# Laboratory results reported in patent US8138218B2, “Growth hormone secretagogues” (Ipsen Pharma S.A.S., priority 2005, dated 2012).
# Molecular target: T1, human growth hormone secretagogue receptor-1a (hGHS-R1a) (Homo sapiens, UniProt Q92847)
# T1 construct: The full length hGHS-R1a was subcloned into the mammalian expression vector pcDNA 3.1; expressed in transfected cells
# Test: hGHS-R1a binding assay, (125I)ghrelin displacement on CHO-K1 cell membranes
# Details: membranes of CHO-K1 cells expressing hGHS-R1a; 0.05 nM (125I)ghrelin; sixty minute incubation at 4° C.
# Description: A. Preparation of CHO-K1 cells expressing the human recombinant GHS receptor-1a
# The cDNA for human growth hormone secretagogue receptor-1a (hGHS-R1a) was cloned by Polymerase Chain Reaction (PCR) using human brain RNA as a template (Clontech®, Palo Alto, Calif.), gene specific primers flanking the full-length coding sequence of hGHS-R1a, (S: 5′-[…]-3′ and AS: 5′-[…]-3′), and an Advantage 2 PCR Kit® (Clontech®). The PCR product was cloned into the pCR2.1 vector using an Original TA Cloning Kit® (Invitrogen®, Carlsbad, Calif.). The full length hGHS-R1a was subcloned into the mammalian expression vector pcDNA 3.1 (Invitrogen®, Carlsbad, Calif.). The plasmid was transfected into the Chinese hamster ovary cell line, CHO-K1 (American Type Culture Collection®, Rockville, Md.), by calcium phosphate method (Wigler, M et al., Cell, (1977), 11:223). Single cell clones stably expressing the hGHS-R1a were obtained by selecting transfected cells grown in cloning rings in RPMI 1640 media supplemented with 10% fetal bovine serum and 1 mM sodium pyruvate containing 0.8 mg/ml G418 (Gibco®, Grand Island, N.Y.).
# B. hGHS-R1a Binding Assay:
# Membranes for radioligand binding studies can be and were prepared by homogenization of the foregoing CHO-K1 cells expressing the hGHS-R1a in 20 ml of ice-cold 50 mM Tris-HCl with a Brinkman Polytron® (Westbury, N.Y.) (setting 6, 15 sec). The homogenates were washed twice by centrifugation (39,000 g/10 min) and the final pellets were re-suspended in 50 mM Tris-HCl containing 2.5 mM MgCl2 and 0.1% BSA. For the assay, aliquots (0.4 ml) were incubated with 0.05 nM (^125I)ghrelin (˜2000 Ci/mmol)(Perkin Elmer Life Sciences®, Boston, Mass.) with and without 0.05 ml of unlabeled competing test compounds of the invention. After a sixty minute incubation at 4° C., the bound (^125I)ghrelin was separated from the free by rapid filtration through GF/C filters (Brandel®, Gaithersburg, Md.) which were previously soaked in 0.5% polyethyleneimine/0.1% BSA. The filters were then washed three times with 5-ml aliquots of ice-cold 50 mM Tris-HCl and 0.1% bovine serum albumin and the bound radioactivity trapped on the filters was counted by gamma spectrometry (Wallac LKB®, Gaithersburg, Md.). Specific binding was defined as the total (^125I)ghrelin bound minus that bound in the presence of 1000 nM ghrelin
# T1 sequence (Q92847 whole entry): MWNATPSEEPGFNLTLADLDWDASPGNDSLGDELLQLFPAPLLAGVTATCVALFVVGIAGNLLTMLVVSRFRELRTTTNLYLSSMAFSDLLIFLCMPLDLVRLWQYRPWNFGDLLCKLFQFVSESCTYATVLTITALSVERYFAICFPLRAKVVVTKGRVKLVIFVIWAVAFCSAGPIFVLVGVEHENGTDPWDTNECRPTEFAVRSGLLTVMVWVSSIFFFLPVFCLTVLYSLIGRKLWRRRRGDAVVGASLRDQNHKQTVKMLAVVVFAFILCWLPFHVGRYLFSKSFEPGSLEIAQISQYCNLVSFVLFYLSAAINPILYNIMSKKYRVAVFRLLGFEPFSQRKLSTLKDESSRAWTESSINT
row,Structure (SMILES),Ki [nM]
1,"CC(C)(N)C(=O)N[C@H](Cc1csc2ccccc12)C(=O)N[C@H](Cc1c[nH]c2ccccc12)NC=O [#1, Aib-D-Bal-DgTrp-CHO]",15
2,"CC(=O)N[C@@H](Cc1c[nH]c2ccccc12)NC(=O)[C@@H](Cc1csc2ccccc12)NC(=O)C(C)(C)N [#11, Aib-D-Bal-DgTrp-C(O)CH3]",38.2
3,CC(C)(N)C(=O)N[C@H](Cc1csc2ccccc12)C(=O)N[C@H](Cc1cccc2ccccc12)NC=O [#2],236
4,CC(=O)N[C@H](Cc1c[nH]c2ccccc12)NC(=O)[C@@H](Cc1csc2ccccc12)NC(=O)C(C)(C)N [#12],2.56
5,CC(C)(N)C(=O)N[C@H](Cc1c[nH]c2ccccc12)C(=O)N[C@H](Cc1csc2ccccc12)NC=O [#5],279
6,CC(C)(N)C(=O)N[C@H](Cc1cccc2ccccc12)C(=O)N[C@H](Cc1csc2ccccc12)NC=O [#6],100
7,CC(C)(N)C(=O)N[C@H](Cc1ccc2ccccc2c1)C(=O)N[C@H](Cc1csc2ccccc12)NC=O [#7],226
8,CC(C)(N)C(=O)N[C@H](Cc1csc2ccccc12)C(=O)N[C@H](Cc1csc2ccccc12)NC=O [#4],92.1

# Other lines, results leading:
row,Ki [nM],Structure (SMILES)
1,133,O=CN[C@@H](Cc1ccc2ccccc2c1)NC(=O)[C@@H](Cc1csc2ccccc12)NC(=O)C1CCNCC1 [#20]
2,20.2,CC(C)C(=O)N[C@@H](Cc1c[nH]c2ccccc12)NC(=O)[C@@H](Cc1csc2ccccc12)NC(=O)C(C)(C)N [#51]
3,93,CC(C)(N)C(=O)N[C@H](Cc1csc2ccccc12)C(=O)N[C@@H](Cc1c[nH]c2ccccc12)OC(=O)C(F)(F)F [#73]
4,16.8,CC(C)(N)C(=O)N[C@H](Cc1cccc2ccccc12)C(=O)N[C@H](Cc1c[nH]c2ccccc12)NC=O [#65]
5,120,O=CN[C@@H](Cc1c[nH]c2ccccc12)NC(=O)[C@@H](Cc1csc2ccccc12)NC(=O)C1CCNCC1 [#18]
6,65.1,CC(C)(C)C(=O)N[C@@H](Cc1c[nH]c2ccccc12)NC(=O)[C@@H](Cc1csc2ccccc12)NC(=O)C(C)(C)N [#52]
7,61.5,CCC(=O)N[C@@H](Cc1c[nH]c2ccccc12)NC(=O)[C@@H](Cc1csc2ccccc12)NC(=O)C(C)(C)N [#50]
